The test system of experiment [1] is ERCC1. The note with it: A2780-CP70; cited from earlier work.
Experiment [2] concerns OPN promoter. Nature of the experiment: OPN promoter luciferase reporter assay in metastatic melanoma cell lines. It counts as cell-based, human. The note with it: MCC012A and MCC012F cell lines; tomatidine. An excerpt:
Empty pGL3 vector was used as control. […] Readings were normalized to total protein content. Each parameter was studied in triplicate and the experiment repeated at least 3 times. The data are represented as percent luciferase activity, which was derived as a percent of the relative light units in treated groups compared with the untreated groups.
(In general: In a reporter assay the amount or activity of a reporter protein is the signal.)

For experiment [3], the system named is MDA-MB-435 (435) and SUM1315 (1315) cells. Nature of the experiment: Drug sensitivity of cells transfected with shRNA to GLI1 (MTS assay). It counts as cell-based, human. The note with it: cells transfected with shRNA to GLI1 vs empty vector; 24 hours. The procedure:
MDA-MB-435 (435) and SUM1315 (1315) cells were transfected with either empty vector (vec) or with vector encoding shRNA to GLI1 (shGLI1). Cells were treated with the indicated concentrations of drugs for 24 hours and viability was assessed using an MTS assay (FIG. 62A-FIG. 62C). […] Using real-time quantitative RT-PCR the GLI1 shRNA brings about a decrease of about 50% in the expression of ABCB1 (MDR1) and 90% decrease in ABCG2 (BCRP).

The subject of experiment [4] is ERCC1, XPD, XRCC1. The note with it: previous experiments; agents at IC50 doses; cited from earlier work.
The test system of experiment [5] is GLI1-knocked down MDA-MB-435 cells. Kind of experiment: Migration, invasion and motility of GLI1-knocked down cells with OPN add-back. It counts as cell-based, human. How it is done:
Motility Assay—These experiments were performed as previously described (Shevde, L. A., et al. (2006) Clin. Exp. Metastasis 23, 123-133). Images were acquired at T0, the reading at the initial time, and at T10 (10 h later). The experiment was conducted in duplicate and cell motility was calculated as (T0−T10)/T0, which represents the rate of movement over a 10-h period. For OPN add-back experiments the cells were pretreated for 12 h with 100 ng/ml human OPN (recombinant R & D Systems) and the assay conducted in the presence of OPN. Each experimental group was assessed in duplicate and data were recorded in three fields per well. Thus, six data points were recorded and analyzed per experimental group.
Invasion and Migration Assays—These experiments were performed as previously outlined (18) using a modified Boyden chamber assay. OPN add-back experiments for migration and invasion were conducted as described above with an additional step of pre-treating the cells for 24 h with rOPN. OPN was added to the upper and lower chambers (100 ng/ml) to ensure the OPN was present during the entire duration of the experiment. Each experimental group was assessed as three independent replicates.

The test system of experiment [6] is RAW264.7 cells. Nature of the experiment: Osteoclast differentiation (TRAP assay). It counts as cell-based, murine. The note with it: DM supplemented with OPN (100 ng/ml) or SHH (100 nM) vs DM. The procedure:
Cell lines—Human metastatic breast cancer cells, MDA-MB-231, were cultured in Dulbecco's Modified Eagle's Medium (DMEM/F12; Invitrogen, Carlsbad, Calif.), supplemented with 2 mM L-glutamine, 1 mM sodium pyruvate, 0.02 mM non-essential amino acids, 5% fetal bovine serum, FBS (Atlanta Biologicals, Norcross, Ga.), without antibiotics or antimycotics (cDME/F12). SUM1315 and SUM159 cells (DiMeo, T. A., et al. (2009) Cancer Res 69, 5364-5373) (Asterand, Detroit, Mich.) were cultured in DMEM/F12 supplemented with […], 5% FBS (Atlanta Biologicals) and either 10 ng/ml EGF or 1 ng/ml hydrocortisone, without antibiotics or antimycotics. The SUM1315 cells are derived from a metastasis in a patient with infiltrating ductal carcinoma; SUM159 cells were derived from a primary breast tumor with metaplastic carcinoma. RAW264.7 (ATCC, TIB 71) cells, a murine pre-osteoclastic line capable of differentiation and […] in culture (in presence of RANKL and MCSF), were grown in DMEM with L-glutamine (ATCC, 30-2002) supplemented with 10% FBS. A 2× differentiation medium (DM) was formulated for the RAW 264.7 cells comprising RAW264.7 growth medium supplemented with 20% FBS, RANKL (100 ng/ml) and M-CSF (40 ng/ml) (Matsubara, T., et al. J Bone Miner Res 25, 1068-1076). Conditioned media was harvested from breast cancer cells and mixed in a 1:1 ratio with double strength differentiation medium to assess the effect on osteoclast differentiation. 1×DM was used as control or wherever SHH (R & D Systems, Minneapolis, Minn.) or OPN (R & D Systems) was used alone. The medium on the RAW264.7 cells was replenished every 48 hours. In order to assess the effect of secreted Hh ligands, the neutralizing 5E1 antibody was used (Developmental Studies Hybridoma Bank, at the University of Iowa, Iowa). […] Medium was supplemented with 5E1 (2.5 μg/ml) and was changed on alternate days until the end of the experiment. The effect of OPN on osteoclast activity was assessed by transfecting an OPN shRNA-expressing construct on day 6 post-induction of differentiation. Fresh DM was added the following day and cells were allowed to grow for another 12 hours before termination of experiment. GLI1 expression was silenced in the SUM1315 cells using shRNA targeting GLI1 into pSuperior. gfp+neo (Oligoengine, WA, USA). Silencing of OPN expression was done using OPN-targeting shRNA cloned into pSuper (Oligoengine)
Osteoclast differentiation and activity assays—Tartarate-resistant acid phosphatase (TRAP) assay was conducted for RAW 264.7 following the manufacturer's protocol (Sigma, St. Louis, Mo.). This assay was indicative of the extent of differentiation. […] The percentage of area resorbed was calculated using the NIS-Elements BR. […]

In experiment [7] the test system is RAW264.7 cells. Nature of the experiment: Osteoclast resorption activity (OAAS plates). The note with it: DM with OPN (100 ng/ml) or SHH (100 nM). It counts as cell-based, murine. The procedure:
Osteoclast differentiation and activity assays—Tartarate-resistant acid phosphatase (TRAP) assay was conducted for RAW 264.7 following the manufacturer's protocol (Sigma, St. Louis, Mo.). This assay was indicative of the extent of differentiation. OAAS plates (Osteogenic Core Technologies, Choongnam, Republic of Korea) were utilized to measure osteoclastic activity. RAW 264.7 cells (25×103) were inoculated in 48-well plates. Cells were treated with serum-free conditioned media from breast cancer cells or 100 nM SHH or 100 ng/ml OPN on the following day. Media was changed every two days and the experiments were terminated either on day 6 (day 7 for knockdown experiments, with transfections being done on the sixth day). At the completion, cells were detached with 5% sodium hypochlorite and the wells were observed under a Nikon Eclipse TS 100 microscope at 10× magnification. […] The percentage of area resorbed was calculated using the NIS-Elements BR. 3.1 software.

“Also recorded” adds a separate entry of the source. Starred links: 1 amine or outer side, 2 acyl side, 3 side chain; linkers in the order of their positions; H or OH if unused. Positions of bridges follow the written chain, without caps; N, C: chain ends. Non-standard residues stand in square brackets, D forms with d. Residues, ends and D or L forms follow the SMILES beside them. Chains are numbered I, II in the order given. Actinocin(9to1) = Cc1c2oc3c(C)ccc(C(=O)[*:1])c3nc-2c(C(=O)[*:2])c(N)c1=O; NMeV = CN[C@H](C(=O)O)C(C)C; Nle = CCCC[C@H](N)C(=O)O; Sar = CNCC(=O)O

For the molecule `CC[C@H](C)[C@@H]1NC(=O)CNC(=O)[C@@H]2Cc3c([nH]c4cc(O)ccc34)[S+]([O-])C[C@@H](NC(=O)CNC1=O)C(=O)N[C@@H](CC(N)=O)C(=O)N1C[C@H](O)C[C@H]1C(=O)N[C@@H]([C@@H](C)[C@@H](O)CO)C(=O)N2` (stereo in doubt) [α-amanitin], the “ERCC1 up-regulation after cisplatin exposure” value (from here on “ERCC1 up-regulation”) in experiment [1] is “blunted ERCC1 up-regulation”.

`CCCC[C@@H](C=O)NC(=O)[C@H](CC(C)C)NC(=O)[C@H](CC(C)C)NC(C)=O` [N-acetyl-leucyl-leucyl-norleucinal] (Ac-Leu-Leu-[Nle]-aldehyde): the “ERCC1 up-regulation” value in experiment [1] is given as “blunted ERCC1 up-regulation”. In the case of `Cc1cc(C)c(/C=C2\C(=O)Nc3ccccc32)[nH]1` [SU5416], the “ERCC1 up-regulation” value in experiment [1] is listed as “blunted ERCC1 up-regulation”. Consider `C[C@H]1CC[C@]2(NC1)O[C@H]1C[C@H]3[C@@H]4CC[C@H]5C[C@@H](O)CC[C@]5(C)[C@H]4CC[C@]3(C)[C@H]1[C@@H]2C` [Tomatidine, tomatidine], for which the “promoter activity of OPN” value in experiment [2] is reported as “no effect”. Take `Cc1c2oc3c(C)ccc(C(=O)N[C@@H]4C(=O)N[C@H](C(C)C)C(=O)N5CCC[C@H]5C(=O)N(C)CC(=O)N(C)[C@@H](C(C)C)C(=O)O[C@@H]4C)c3nc-2c(C(=O)N[C@@H]2C(=O)N[C@H](C(C)C)C(=O)N3CCC[C@H]3C(=O)N(C)CC(=O)N(C)[C@@H](C(C)C)C(=O)O[C@@H]2C)c(N)c1=O` [actinomycin D] (I: T[dV]P[Sar][NMeV] / II: T[dV]P[Sar][NMeV]; ester I:1-I:C, II:1-II:C; linker I:N-II:N via Actinocin(9to1)): in experiment [1], the “ERCC1 up-regulation” value is given as “blunted ERCC1 up-regulation”.

Take `[Cr]` [chromium]: in experiment [1], the “ERCC1 up-regulation” value is reported as “blunted ERCC1 up-regulation”. `C[C@@H]1C[C@@H]([C@H](O)CC2CC(=O)NC(=O)C2)C(=O)[C@@H](C)C1` [cycloheximide]: the “ERCC1 up-regulation” value in experiment [1] is recorded as “blunted ERCC1 up-regulation”. Regarding `COc1cccc2c1C(=O)c1c(O)c3c(c(O)c1C2=O)C[C@@](O)(C(=O)CO)C[C@@H]3O[C@H]1C[C@H](N)[C@H](O)[C@H](C)O1` [doxorubicin], the “sensitivity to drug (viability, MTS assay)” value in experiment [3] is on record as “increased sensitivity”.

As to `CO[C@H]1[C@@H](OC)C[C@H](C)[C@@H](OC)C2=CC(=O)C=C(NC(=O)/C(C)=C/C=C\[C@H](OC)[C@@H](OC(N)=O)/C(C)=C/[C@@H]1C)C2=O` [herbimycin A], the “ERCC1 up-regulation” value in experiment [1] was “blunted ERCC1 up-regulation”.

Consider `CC(=O)N[C@@H](CSC(=O)[C@]1([C@@H](O)C(C)C)NC(=O)[C@H](C)[C@@H]1O)C(=O)O` [lactacystin], for which the “ERCC1 up-regulation” value in experiment [1] is “blunted ERCC1 up-regulation”.

For the molecule `CCCCCCCCCCCCCC(=O)O[C@@H]1[C@@H](C)[C@@]2(O)[C@@H](C=C(CO)C[C@]3(O)C(=O)C(C)=C[C@@H]23)[C@@H]2C(C)(C)[C@]12OC(C)=O` [phorbol ester], the “ERCC1, XPD, or XRCC1 regulation” value in experiment [4] is recorded as “up-regulated”. With `[Pt]` [platinum], the “ERCC1 up-regulation” value in experiment [1] is on record as “blunted ERCC1 up-regulation”. For `CC(=O)O[C@H]1C(=O)[C@@]2(C)[C@H]([C@H](OC(=O)c3ccccc3)[C@]3(O)C[C@H](OC(=O)[C@H](O)[C@@H](NC(=O)c4ccccc4)c4ccccc4)C(C)=C1C3(C)C)[C@]1(OC(C)=O)CO[C@@H]1C[C@@H]2O` [taxol], the “sensitivity to drug (viability, MTS assay)” value in experiment [3] is given as “increased sensitivity”. In the case of “OPN: recombinant human osteopontin (R & D Systems)”, the “cell motility (wound healing assay)” value in experiment [5] (KO1 and KO4 cells in presence of recombinant OPN) was “restored”. In experiment [5] (KO1 and KO4 cells, OPN 100 ng/ml vs untreated), the “cell invasion through Matrigel” value is reported as “significantly larger numbers”. The cell migration result in experiment [5] (KO1 and KO4 cells, OPN 100 ng/ml vs untreated, modified Boyden chamber) was “significantly larger numbers”. Also, the “numbers of multinucleate TRAP-positive cells” value in experiment [6] is given as “stimulate osteoclast differentiation; also recorded: significantly (* indicates p<0.005) increases”. Moreover, the “resorption activity of differentiated osteoclasts” value in experiment [7] is listed as “significantly (* indicates p<0.001) increases the resorption activity”.

B1: interleukin 1-α (protein, UniProt P01583 113-271, looked up)
Interleukin-1 alpha: SAPFSFLSNVKYNFMRIIKYEFILNDALNQSIIRANDQYLTAAALHNLDEAVKFDMGAYKSSKDDAKITVILRISKTQLYVTAQDEDQPVLLKEMPEIPKTITGSETNLLFFWETHGTKNYFTSVAHPNLFIATKQDYWVCLAGGPPSITDFQILENQA
Take B1: the “ERCC1 up-regulation” value in experiment [1] is on record as “blunted ERCC1 up-regulation”.

The record behind these values is patent US9540647B2, “Methods and compositions for the treatment of cancer” (University of South Alabama, priority 2010, dated 2017).
